Common to all, as to type: cell-based
For one assay, the system named is C. albicans SN152. Description: MIC80 broth double-dilution assay. The conditions noted are these: for MIC80: Candida albicans, SN152, 24 h, read-out: MIC80 against C. albicans SN152; for MIC80 against C. albicans SN152: YPAD medium, 30° C., 24 h, parent strain of the erg11ΔΔ/erg3ΔΔ mutant. An outline of the steps:
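CLSI M27-A3-based broth microdilution in YPAD, cells diluted from 1×10^−3 OD600 suspension 1:100, hybrids double-diluted from 64 to 0.003 μg/mL. After 24 h at 30 °C, MIC80 is the OD600 reduction >80% versus no-drug wells; triplicate, two independent experiments.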

A further assay concerns C. albicans ATCC 24433. Description: MIC80 broth double-dilution assay. The settings on record: YPAD medium, 30° C., 24 h; for MIC80: Candida albicans, ATCC24433, read-out: MIC80 against C. albicans 24433. An outline of the steps:
(§1)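 CLSI M27-A3-based broth microdilution in YPAD over 0.003–64 μg/mL, inoculum from 1×10^−3 OD600 suspension diluted 1:100. OD600 read after 24 h at 30 °C; MIC80 taken as lowest concentration giving >80% growth reduction versus no-drug wells. Triplicates, two independent experiments.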

The test system of a further assay is C. albicans ATCC 90028. Description: MIC80 broth double-dilution assay. The conditions noted are these: YPAD medium, 30° C., 24 h; for MIC80: Candida albicans, ATCC90028, read-out: MIC80 against C. albicans 90028. The method in brief: as §1
Another assay concerns C. albicans SC5314. As to the kind of experiment: MIC80 broth double-dilution assay. The conditions noted are these: YPAD medium, 30° C., 24 h; for MIC80: Candida albicans, SC5314, read-out: MIC80 against C. albicans SC5314. An outline of the steps: as §1
Assay [1] concerns C. parapsilosis ATCC 22019. As to the kind of experiment: MIC80 broth double-dilution assay. The settings on record: YPAD medium, 30° C., 24 h; for MIC80: Lodderomyces parapsilosis, ATCC22019, read-out: MIC80 against C. parapsilosis 22019. An outline of the steps: as §1
The subject of the next assay is C. tropicalis 660. Description: MIC80 broth double-dilution assay. The conditions noted are these: YPAD medium, 30° C., 24 h; for MIC80: Candida tropicalis, 660, read-out: MIC80 against C. tropicalis 660. The method in brief:
as §1

Another assay concerns C. guilliermondii T-47. Description: MIC80 broth double-dilution assay. The settings on record: YPAD medium, 30° C., 24 h; for MIC80: Meyerozyma guilliermondii, T47, read-out: MIC80 against C. guilliermondii T-47. The method in brief: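 Broth double dilution following modified CLSI M27-A3, YPAD medium, compound range 64 to 0.003 μg/mL; inoculum from 1×10^−3 OD600 suspension diluted 1:100. After 24 h at 30 °C, MIC80 taken as lowest concentration reducing OD600 by >80% versus no-drug control; triplicates, fluconazole and voriconazole as controls.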

The next assay relates to C. auris ATCC MYA5001. Description: MIC broth double-dilution assay with MTT (CLSI M27-A3). The conditions noted are these: 37° C., 24 h; for MIC: Candidozyma auris, ATCCMYA5001, YPAD medium, growth score 0 or 1, read-out: MIC against C. auris 5001; for MIC against C. auris 5001: YPAD medium, growth score 0 or 1. As to the method:
(§2) Minimal inhibitory concentration broth double-dilution assay: C. auris minimal inhibitory concentrations (MICs) were determined using CLSI M27-A3 guidelines with minor modifications. Starter cultures were streaked from glycerol stock onto YPAD agar plates and grown for 24 h at 37° C. Colonies were suspended in 1 mL PBS and diluted to 1×10^−3 optical density at 600 nm (OD600) and then diluted 1:100 into fresh medium. hybrids dissolved in DMSO were added to YPAD broth (32 μL stock solution in 1218 μL of YPAD broth), and serial double dilutions of hybrids in YPAD were prepared in flat-bottomed 96-well microplates (Corning) to enable testing of concentrations ranging from 64 μg/mL to 0.007 μg/mL. Control wells with yeast cells but no drug and blank wells containing only YPAD were prepared. An equal volume (100 μL) of yeast suspension in YPAD broth was added to each well with the exceptions of the blank wells. After incubation for 24 h at 37° C., MTT (50 μL of a 1 mg/mL solution in ddH2O) was added to each well followed by additional incubation at 37° C. for 2 h. MIC values (Table S3) were defined as the lowest concentration of an antifungal agent that caused a specified reduction in visible growth as per the CLSI M27-A3 protocol. The magnitude of reduction in visible growth was assessed using the following numerical scale: 0, optically clear; 1, slightly hazy; 2, prominent decrease (˜50%) in visible growth; 3, slight reduction in visible growth; and 4, no reduction in visible growth. The MIC was defined based on reduction in growth to 0 or 1. Results were confirmed in two independent experiments, and each concentration was tested in triplicate. FLC and VOR were used as control drugs.

The next assay concerns C. auris ATCC MYA5002. The assay is described as above. The settings on record: 37° C., 24 h; for MIC: Candidozyma auris, ATCCMYA5002, YPAD medium, growth score 0 or 1, read-out: MIC against C. auris 5002; for MIC against C. auris 5002: YPAD medium, growth score 0 or 1. Here is the method: as §2
The subject of assay [2] is panel of 16 representative strains of different species of the genus Candida. Description: Antifungal activity (MIC80) against a panel of Candida strains, comparison. The settings on record: azole-susceptible strains. Here is the method:
The antifungal activities of the 24 azole-COX inhibitor hybrids were evaluated against a panel of 16 representative strains of different species of the genus Candida. Candida species cause both superficial and systemic infections. The panel included strains of C. albicans, C. glabrata, C. parapsilosis, C. tropicalis, C. guilliermondii, C. dubliniensis, and C. auris (Table S2). To evaluate antifungal activity, the minimal inhibitory concentration 80% (MIC80) values were determined, which were defined as the lowest drug concentrations with turbidity (measured at OD600) less than or equal to that of specific 1:5 dilutions of the growth control. As controls, FLC and VOR, were tested.
MIC80 values were determined using the broth microdilution method over a concentration range of 0.003-64 μg/mL. Orange circles represent C. albicans strains, yellow circles represent C. glabrata strains, and green circles represent C. parapsilosis, C. tropicalis, C. dubliniensis and C. auris. Cells were grown in YPAD medium at 30° C. (For C. auris strains 37° C.) 24 h. Each concentration was tested in triplicate, and results were confirmed in at least two independent experiments.
C. albicans, C. glabrata, C. parapsilosis, C. guilliermondii, C. tropicalis, and C. dubliniensis MICs were determined using CLSI M27-A3 guidelines with minor modifications. Starter cultures were streaked from glycerol stock onto YPAD agar plates and grown for 24 h at 30° C. Colonies were suspended in 1 mL PBS and diluted to 1×10^−3 OD600 and then diluted 1:100 into fresh medium. Hybrids dissolved in DMSO were added to YPAD broth (32 μL stock solution in 1218 μL of YPAD broth), and serial double dilutions of hybrids in YPAD were prepared in flat-bottomed 96-well microplates (Corning) to enable testing of concentrations ranging from 64 μg/mL to 0.003 μg/mL. Control wells with yeast cells but no drug and blank wells containing only YPAD were prepared. An equal volume (100 μL) of yeast suspensions in YPAD broth was added to each well with the exceptions of the blank wells. MIC values (Tables S4-S6) were determined after 24 h at 30° C. by measuring the OD600 using a plate reader (Infinite M200 PRO, Tecan). MIC values were defined as the point at which the OD600 was reduced by >80% compared to the no-drug wells. Each concentration was tested in triplicate, and results were confirmed by two independent sets of experiments. FLC and VOR were used as control drugs.

In brackets after ≈: the same amount, converted by molar mass. Entries after “also recorded” stand apart in the source; their conditions may differ. Bounds are passed on as bounds.

As usually defined, the MIC80 is an inhibitory concentration at the 80% level, which refers to growth in some studies and to a panel of isolates in others. One may read the MIC as the smallest concentration in the dilution series that meets the test's criterion for growth inhibition.

`C[C@@H](c1ncncc1F)[C@](O)(Cn1cncn1)c1ccc(F)cc1F` [VOR, voriconazole, reference compound]: the MIC80 in the assay with C. albicans SN152 turned out to be 0.007 mg/L (≈ 0.02 µM); in the assay with C. albicans ATCC 24433 it was 0.015 mg/L (≈ 0.0429 µM); in the assay with C. albicans ATCC 90028, 0.007 mg/L (≈ 0.02 µM); with C. albicans SC5314 it was 0.007 mg/L (≈ 0.02 µM); in assay [1] it was 0.015 mg/L (≈ 0.0429 µM); with C. tropicalis 660, 0.12 mg/L (≈ 0.344 µM). Moreover, in the assay on C. guilliermondii T-47, the MIC80 is 0.06 mg/L (≈ 0.172 µM). In addition, the MIC in the assay with C. auris ATCC MYA5001 was 0.03 mg/L (≈ 0.0859 µM); in the assay on C. auris ATCC MYA5002, 1 mg/L (≈ 2.86 µM).
`CC(C)Cc1ccc([C@H](C)C(=O)NC[C@](O)(Cn2cncn2)c2ccc(F)cc2F)cc1` [Hybrid 1]: the “MIC80 against C. albicans SN152” value in the assay on C. albicans SN152 was found to be 0.003 mg/L (≈ 0.00678 µM). The “MIC80 against C. albicans 24433” value against C. albicans ATCC 24433 was 0.007 mg/L (≈ 0.0158 µM). Also, the “MIC80 against C. albicans 90028” value in the assay with C. albicans ATCC 90028 worked out at 0.003 mg/L (≈ 0.00678 µM). In addition, in the assay with C. albicans SC5314, the “MIC80 against C. albicans SC5314” value was 0.003 mg/L (≈ 0.00678 µM). Moreover, the “MIC80 against C. parapsilosis 22019” value in [1] came out at 0.007 mg/L (≈ 0.0158 µM). Further, the “MIC80 against C. tropicalis 660” value with C. tropicalis 660 stood at 0.03 mg/L (≈ 0.0678 µM). Also, the “MIC80 against C. guilliermondii T-47” value against C. guilliermondii T-47 was 0.06 mg/L (≈ 0.136 µM). In addition, in the assay on C. auris ATCC MYA5001, the “MIC against C. auris 5001” value stood at 0.06 mg/L (≈ 0.136 µM). For the same compound, the “MIC against C. auris 5002” value against C. auris ATCC MYA5002 was determined as 1 mg/L (≈ 2.26 µM). In assay [2], the “Antifungal potency (MIC80) in comparison with FLC, VOR or the corresponding stereoisomer” value was “lowest MIC80 values against all of the azole-susceptible strains; also recorded: up to two orders of magnitude more potent than FLC and was as potent as VOR”.
Take `C[C@H](C(=O)NC[C@](O)(Cn1cncn1)c1ccc(F)cc1F)c1ccc(-c2ccccc2)c(F)c1` [Hybrid 5]: the “MIC80 against C. albicans SN152” value in the assay on C. albicans SN152 came out at 0.007 mg/L (≈ 0.0146 µM). For the same compound, the “MIC80 against C. albicans 24433” value in the assay with C. albicans ATCC 24433 was 0.03 mg/L (≈ 0.0624 µM). Besides, the “MIC80 against C. albicans 90028” value against C. albicans ATCC 90028 worked out at 0.015 mg/L (≈ 0.0312 µM). The “MIC80 against C. albicans SC5314” value with C. albicans SC5314 was 0.007 mg/L (≈ 0.0146 µM). Besides, in the assay on C. tropicalis 660, the “MIC80 against C. tropicalis 660” value stood at 0.06 mg/L (≈ 0.125 µM). For the same compound, in the assay on C. guilliermondii T-47, the “MIC80 against C. guilliermondii T-47” value was determined as 0.5 mg/L (≈ 1.04 µM). In addition, the “MIC against C. auris 5001” value with C. auris ATCC MYA5001 turned out to be 0.06 mg/L (≈ 0.125 µM). In the assay on C. auris ATCC MYA5002, the “MIC against C. auris 5002” value turned out to be 4 mg/L (≈ 8.32 µM). The “Antifungal potency (MIC80) in comparison with FLC, VOR or the corresponding stereoisomer” value in assay [2] is “lowest MIC80 values against all of the azole-susceptible strains; also recorded: more potent than the corresponding R-configured ibuprofen hybrid 6”.
As to `OC(Cn1cncn1)(Cn1cncn1)c1ccc(F)cc1F` [FLC, fluconazole], the MIC80 came out at 0.5 mg/L (≈ 1.63 µM) in the assay with C. albicans SN152; 1 mg/L (≈ 3.27 µM) in the assay on C. albicans ATCC 24433; 0.5 mg/L (≈ 1.63 µM) in the assay on C. albicans ATCC 90028; 0.5 mg/L (≈ 1.63 µM) with C. albicans SC5314; 1 mg/L (≈ 3.27 µM) in assay [1]; 1 mg/L (≈ 3.27 µM) in the assay on C. tropicalis 660. In the assay on C. guilliermondii T-47, the MIC80 was 4 mg/L (≈ 13.1 µM). Further, the figures for the MIC in the assay on C. auris ATCC MYA5001 and in the assay on C. auris ATCC MYA5002 were 8 mg/L (≈ 26.1 µM) and over 64 mg/L, respectively.
